Legend:
Test in all cases: Kinase inhibitor library screening, PrestoBlue cell viability, 1 or 10 μM, 72 h
501Mel cells (parental) = test system: 501Mel cells (parental)
Outline: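 Normalised to untreated controls, viability percentages came from PrestoBlue measured on a microplate reader following 72 h incubation with drug. Each line was assayed at least twice.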

[1] = test system: 501Mel-GP cells (Dabrafenib-resistant)
[2] = test system: 501Mel-XP cells (Vemurafenib-resistant)
A375 cells (parental) = test system: A375 cells (parental)
[3] = test system: A375-GP cells (Dabrafenib-resistant)
[4] = test system: A375-XP cells (Vemurafenib-resistant)
IGR37 cells (parental) = test system: IGR37 cells (parental)
[5] = test system: IGR37-GP cells (Dabrafenib-resistant)
[6] = test system: IGR37-XP cells (Vemurafenib-resistant)
[7] = 501Mel Parental, 1μΜ, 72 h, in %
[8] = 501Mel Parental, 10μΜ, 72 h, in %
[9] = IGR37 Parental, 10μΜ, 72 h, in %
[10] = IGR37 Parental, 1μΜ, 72 h, in %

Cc1cc(Nc2cc(N3CCN(C)CC3)nc(/C=C/c3ccccc3)n2)n[nH]1 [ENMD-2076]
viability at 1 µM (501Mel cells (parental); Homo sapiens, 72 h, read-out: cell viability, 501Mel Parental, 1μΜ): 97%
viability at 10 µM (501Mel cells (parental); Homo sapiens, 72 h, read-out: cell viability, 501Mel Parental, 10μΜ): 3.4%
viability at 1 µM ([1]; Homo sapiens, 72 h, read-out: cell viability, 501Mel GP, 1μΜ): 99.4%
viability at 10 µM ([1]; Homo sapiens, 72 h, read-out: cell viability, 501Mel GP, 10μΜ): 25.5%
viability at 1 µM ([2]; Homo sapiens, 72 h, read-out: cell viability, 501Mel XP, 1μΜ): 69.3%
viability at 10 µM ([2]; Homo sapiens, 72 h, read-out: cell viability, 501Mel XP, 10μΜ): 1.1%
viability at 1 µM (A375 cells (parental); Homo sapiens, A-375, 72 h, read-out: cell viability, A375 Parental, 1μΜ): 67.6%
viability at 10 µM (A375 cells (parental); Homo sapiens, A-375, 72 h, read-out: cell viability, A375 Parental, 10μΜ): 21.2%
viability at 1 µM ([3]; Homo sapiens, A-375, 72 h, read-out: cell viability, A375 GP, 1μΜ): 65.8%
viability at 10 µM ([3]; Homo sapiens, A-375, 72 h, read-out: cell viability, A375 GP, 10μΜ): 20.9%
viability at 1 µM ([4]; Homo sapiens, A-375, 72 h, read-out: cell viability, A375 XP, 1μΜ): 79.9%
viability at 10 µM ([4]; Homo sapiens, A-375, 72 h, read-out: cell viability, A375 XP, 10μΜ): 19.2%
viability at 1 µM (IGR37 cells (parental); Homo sapiens, IGR-37, 72 h, read-out: cell viability, IGR37 Parental, 1μΜ): 96.5%
viability at 10 µM (IGR37 cells (parental); Homo sapiens, IGR-37, 72 h, read-out: cell viability, IGR37 Parental, 10μΜ): 25.6%
viability at 1 µM ([5]; Homo sapiens, IGR-37, 72 h, read-out: cell viability, IGR37 GP, 1μΜ): 90.4%
viability at 10 µM ([5]; Homo sapiens, IGR-37, 72 h, read-out: cell viability, IGR37 GP, 10μΜ): 5.2%
viability at 1 µM ([6]; Homo sapiens, IGR-37, 72 h, read-out: cell viability, IGR37 XP, 1μΜ): 89.3%
viability at 10 µM ([6]; Homo sapiens, IGR-37, 72 h, read-out: cell viability, IGR37 XP, 10μΜ): 2.2%

CC(C)c1cnn2c(NCc3ccccc3)cc(NCCCCCCN)nc12.Cl [BS-181 HCl]
cell viability (kinase inhibitor library screening) (501Mel cells (parental); 501Mel Parental, 1μΜ, 72 h): 97.6%
cell viability (kinase inhibitor library screening) (501Mel cells (parental); 501Mel Parental, 10μΜ, 72 h): 87.4%
cell viability (kinase inhibitor library screening) ([1]; 501Mel GP, 1μΜ, 72 h): 108.6%
cell viability (kinase inhibitor library screening) ([1]; 501Mel GP, 10μΜ, 72 h): 87.7%
cell viability (kinase inhibitor library screening) ([2]; 501Mel XP, 1μΜ, 72 h): 98.4%
cell viability (kinase inhibitor library screening) ([2]; 501Mel XP, 10μΜ, 72 h): 55.9%
cell viability (kinase inhibitor library screening) (A375 cells (parental); A375 Parental, 10μΜ, 72 h): 91.6%
cell viability (kinase inhibitor library screening) ([3]; A375 GP, 1μΜ, 72 h): 105.9%
cell viability (kinase inhibitor library screening) ([3]; A375 GP, 10μΜ, 72 h): 84.9%
cell viability (kinase inhibitor library screening) ([4]; A375 XP, 1μΜ, 72 h): 112.1%
cell viability (kinase inhibitor library screening) ([4]; A375 XP, 10μΜ, 72 h): 92.4%
cell viability (kinase inhibitor library screening) (IGR37 cells (parental); IGR37 Parental, 1μΜ, 72 h): 98.6%
cell viability (kinase inhibitor library screening) ([5]; IGR37 GP, 1μΜ, 72 h): 92.7%
cell viability (kinase inhibitor library screening) ([5]; IGR37 GP, 10μΜ, 72 h): 81.4%
cell viability (kinase inhibitor library screening) ([6]; IGR37 XP, 1μΜ, 72 h): 97.6%
cell viability (kinase inhibitor library screening) ([6]; IGR37 XP, 10μΜ, 72 h): 59.8%

Cc1ccc(-n2nc(C(C)(C)C)cc2NC(=O)Nc2ccc(OCCN3CCOCC3)c3ccccc23)cc1 [BIRB 796 (Doramapimod)]
Cell viability in kinase inhibitor library screening, 501Mel Parental, 1μΜ (501Mel cells (parental); [7]): 96.5
Cell viability in kinase inhibitor library screening, 501Mel Parental, 10μΜ (501Mel cells (parental); [8]): 84.9
Cell viability in kinase inhibitor library screening, 501Mel GP, 1μΜ ([1]; 501Mel GP, 1μΜ, 72 h, in %): 105.5
Cell viability in kinase inhibitor library screening, 501Mel GP, 10μΜ ([1]; 501Mel GP, 10μΜ, 72 h, in %): 94.6
Cell viability in kinase inhibitor library screening, 501Mel XP, 1μΜ ([2]; 501Mel XP, 1μΜ, 72 h, in %): 98.8
Cell viability in kinase inhibitor library screening, 501Mel XP, 10μΜ ([2]; 501Mel XP, 10μΜ, 72 h, in %): 86.9
Cell viability in kinase inhibitor library screening, A375 Parental, 10μΜ (A375 cells (parental); A375 Parental, 10μΜ, 72 h): 86.4
Cell viability in kinase inhibitor library screening, A375 Parental, 1μΜ (A375 cells (parental); A375 Parental, 1μΜ, 72 h): 99.9
Cell viability in kinase inhibitor library screening, A375 GP, 1μΜ ([3]; A375 GP, 1μΜ, 72 h): 103.9
Cell viability in kinase inhibitor library screening, A375 GP, 10μΜ ([3]; A375 GP, 10μΜ, 72 h): 76.2
Cell viability in kinase inhibitor library screening, A375 XP, 10μΜ ([4]; A375 XP, 10μΜ, 72 h): 85.3
Cell viability in kinase inhibitor library screening, IGR37 Parental, 10μΜ (IGR37 cells (parental); [9]): 97.2
Cell viability in kinase inhibitor library screening, IGR37 GP, 10μΜ ([5]; IGR37 GP, 10μΜ, 72 h): 78.5%
Cell viability in kinase inhibitor library screening, IGR37 GP, 1μΜ ([5]; IGR37 GP, 1μΜ, 72 h, in %): 89.9
Cell viability in kinase inhibitor library screening, IGR37 XP, 10μΜ ([6]; IGR37 XP, 10μΜ, 72 h): 71.3%
Cell viability in kinase inhibitor library screening, IGR37 XP, 1μΜ ([6]; IGR37 XP, 1μΜ, 72 h, in %): 94.7

COc1cc2nccc(Oc3ccc(NC(=O)Nc4ccc(F)cc4F)c(F)c3)c2cc1OC [Ki8751]
cell viability (kinase inhibitor library screening) (501Mel cells (parental); 501Mel Parental, 1μΜ, in %): 96.7
cell viability (kinase inhibitor library screening) (501Mel cells (parental); 501Mel Parental, 10μΜ, in %): 85.3
cell viability (kinase inhibitor library screening) ([1]; 501Mel GP, 1μΜ, in %): 97.3
cell viability (kinase inhibitor library screening) ([1]; 501Mel GP, 10μΜ, in %): 80.7
cell viability (kinase inhibitor library screening) ([2]; 501Mel XP, 1μΜ, in %): 89.9
cell viability (kinase inhibitor library screening) ([2]; 501Mel XP, 10μΜ, in %): 74.9
cell viability (kinase inhibitor library screening) (A375 cells (parental); A375 Parental, 1μΜ, in %): 96.1
cell viability (kinase inhibitor library screening) (A375 cells (parental); A375 Parental, 10μΜ, in %): 75.1
cell viability (kinase inhibitor library screening) ([3]; A375 GP, 1μΜ, in %): 94.2
cell viability (kinase inhibitor library screening) ([3]; A375 GP, 10μΜ, in %): 77.5
cell viability (kinase inhibitor library screening) ([4]; A375 XP, 10μΜ, in %): 97.9
cell viability (kinase inhibitor library screening) (IGR37 cells (parental); IGR37 Parental, 1μΜ, in %): 93.0
cell viability (kinase inhibitor library screening) (IGR37 cells (parental); IGR37 Parental, 10μΜ, in %): 84.9
cell viability (kinase inhibitor library screening) ([5]; IGR37 GP, 1μΜ, in %): 88.2
cell viability (kinase inhibitor library screening) ([5]; IGR37 GP, 10μΜ, in %): 88.8
cell viability (kinase inhibitor library screening) ([6]; IGR37 XP, 1μΜ, in %): 88.9
cell viability (kinase inhibitor library screening) ([6]; IGR37 XP, 10μΜ, in %): 70.9

CN1CCN(c2cccc(Nc3nc4c(-c5ccc(S(C)(=O)=O)cc5)cccn4n3)c2)CC1 [CEP33779]
cell viability, 501Mel Parental, 1μΜ (501Mel cells (parental); [7]): 94.5
cell viability, 501Mel Parental, 10μΜ (501Mel cells (parental); [8]): 91.1
cell viability, 501Mel GP, 10μΜ ([1]; 501Mel GP, 10μΜ, 72 h, in %): 81.6
cell viability, 501Mel XP, 1μΜ ([2]; 501Mel XP, 1μΜ, 72 h, in %): 88.8
cell viability, 501Mel XP, 10μΜ ([2]; 501Mel XP, 10μΜ, 72 h, in %): 71.8
cell viability, A375 Parental, 10μΜ (A375 cells (parental); A375 Parental, 10μΜ, 72 h, in %): 76.5
cell viability, A375 GP, 10μΜ ([3]; A375 GP, 10μΜ, 72 h, in %): 77.6
cell viability, A375 XP, 1μΜ ([4]; A375 XP, 1μΜ, 72 h, in %): 100.1
cell viability, A375 XP, 10μΜ ([4]; A375 XP, 10μΜ, 72 h, in %): 88.6
cell viability, IGR37 Parental, 1μΜ (IGR37 cells (parental); [10]): 103.9
cell viability, IGR37 Parental, 10μΜ (IGR37 cells (parental); [9]): 83.9
cell viability, IGR37 GP, 10μΜ ([5]; IGR37 GP, 10μΜ, 72 h): 67.9%
cell viability, IGR37 GP, 1μΜ ([5]; IGR37 GP, 1μΜ, 72 h, in %): 93.0
cell viability, IGR37 XP, 10μΜ ([6]; IGR37 XP, 10μΜ, 72 h): 28.8%
cell viability, IGR37 XP, 1μΜ ([6]; IGR37 XP, 1μΜ, 72 h, in %): 90.4

CC(C)(C)c1nc(-c2cccc(NS(=O)(=O)c3c(F)cccc3F)c2F)c(-c2ccnc(N)n2)s1 [Dabrafenib (GSK2118436)]
Cell viability in kinase inhibitor library screening, 501Mel Parental, 1μΜ (501Mel cells (parental); [7]): 51.2
Cell viability in kinase inhibitor library screening, 501Mel Parental, 10μΜ (501Mel cells (parental); [8]): 72.8
Cell viability in kinase inhibitor library screening, 501Mel GP, 1μΜ ([1]; 501Mel GP, 1μΜ, 72 h, in %): 96.2
Cell viability in kinase inhibitor library screening, 501Mel GP, 10μΜ ([1]; 501Mel GP, 10μΜ, 72 h, in %): 92.9
Cell viability in kinase inhibitor library screening, 501Mel XP, 1μΜ ([2]; 501Mel XP, 1μΜ, 72 h, in %): 79.2
Cell viability in kinase inhibitor library screening, 501Mel XP, 10μΜ ([2]; 501Mel XP, 10μΜ, 72 h, in %): 97.5
Cell viability in kinase inhibitor library screening, A375 Parental, 10μΜ (A375 cells (parental); A375 Parental, 10μΜ, 72 h): 26.9
Cell viability in kinase inhibitor library screening, A375 Parental, 1μΜ (A375 cells (parental); A375 Parental, 1μΜ, 72 h): 17.6
Cell viability in kinase inhibitor library screening, A375 GP, 1μΜ ([3]; A375 GP, 1μΜ, 72 h): 65.8
Cell viability in kinase inhibitor library screening, A375 GP, 10μΜ ([3]; A375 GP, 10μΜ, 72 h): 52.9
Cell viability in kinase inhibitor library screening, A375 XP, 1μΜ ([4]; A375 XP, 1μΜ, 72 h): 73.0
Cell viability in kinase inhibitor library screening, A375 XP, 10μΜ ([4]; A375 XP, 10μΜ, 72 h): 48.7
Cell viability in kinase inhibitor library screening, IGR37 Parental, 1μΜ (IGR37 cells (parental); [10]): 34.2
Cell viability in kinase inhibitor library screening, IGR37 Parental, 10μΜ (IGR37 cells (parental); [9]): 44.5
Cell viability in kinase inhibitor library screening, IGR37 GP, 10μΜ ([5]; IGR37 GP, 10μΜ, 72 h): 97.8%
Cell viability in kinase inhibitor library screening, IGR37 GP, 1μΜ ([5]; IGR37 GP, 1μΜ, 72 h, in %): 94.6
Cell viability in kinase inhibitor library screening, IGR37 XP, 10μΜ ([6]; IGR37 XP, 10μΜ, 72 h): 78.9%
Cell viability in kinase inhibitor library screening, IGR37 XP, 1μΜ ([6]; IGR37 XP, 1μΜ, 72 h, in %): 93.2
